This is an account of results in patent US8420331B2, “Type IV collagen-like immunoreactive peptide” (priority 2006, dated 2013).

The subject of test [1] is antibody (IgG) in urine of nephritis patients. Put plainly: Screening of antigenic site on alpha 5 chain NC1: ELISA with synthetic peptides as coating antigen. The test is classed as binding, human. Here is the method:
A preliminary test was carried out, using the ELISA method, in which NC1 as the antigen for coating was replaced with synthetic peptides. The measurement conditions were: antigen concentration: 10 μg/mL (10 mM PBS), 100 μL/well; blocking agent: Block Ace (manufactured by Dainippon Pharmaceutical Co., Ltd.) diluted to 25%, 250 μL/well; urine: human 20- to 100-fold dilution; second antibody (enzyme-labeled anti-human IgG antibody): ×800; and substrate solution: TMB (+) (manufactured by DAKO Corp). The specimen was diluted to 20- to 100-fold, unlike the original fourfold dilution of NC1 as the antigen. […] Accordingly, a main test was carried out using NC1 of the alpha 5 chain. Note that 301 contained the amino acid sequence about 5 to 18 from the N-terminus on the alpha 3 chain corresponding to Goodpasture syndrome specified by computer software. Furthermore, it was possible to check alpha chains other than the alpha 5 chain, such as 301. […] Therefore, it was possible to use both antigens as nephritis detection reagents.
A test was carried out using the ELISA method, in which NC1 as the antigen for coating was replaced with synthetic peptides, under the same conditions as those described above.
The peptides of the alpha 5 chain were prepared as described below. Fifteen synthetic peptides were prepared from the whole region of the alpha 5 chain NC1, in which a first unit of 20 amino acid residues was selected from the N-terminus, and subsequent units, each containing 20 amino acid residues, were selected with 5 amino acid residues overlapping each other (hereinafter referred to as yp01 to yp15 (H4NA5-1 to 5-15 in FIG. 6), yp15 containing more than 20 amino acid residues). […] Thus, the five peptides were antigenic sites common to the specimen A, the specimen B, and IgA nephropathy which were derived from different diseases. As described above, bovine glomerulus-derived NC1 and triple helix have substantially the same reactivity with nephritis urine specimens, and both are considered to be common antigens to nephritis. Thus, the triple helix (7S and/or the central helical domain) of the alpha 5 chain and peptides thereof can be considered as immunoreactive peptide candidates. The whole alpha 5 chain may be used as an antigen. However, in such a case, a time-consuming process is required.

In test [2] the test system is rabbits (female). In words: Nephritis model using immunoreactive peptide as inducer, rabbits, urinary protein. The test is classed as in vivo, rabbit. The following applies: peptide 0.3 mg/mL with FCA intradermally once in two weeks, four times. The method, then: The selected peptides can be used as an inducer of nephritis independently and/or in combination with each other. Although yp08 (SEQ ID NO: 8) and yp12 (SEQ ID NO: 6) were used as peptides and rabbits and guinea pigs were used as animals, the peptides, animals, and administration methods are not limited thereto.
(§1) Peptides 0.3 mg/mL (0.15 mg only for initial administration) together with the same amount of FCA were intradermally administered to rabbits (female) once in two weeks, four times in total.

Test [3] deals with rabbits (female). Put plainly: ELISA antibody level in serum of peptide-immunised rabbits (peptide-coated microplate). The following applies: rabbit serum. The test is classed as in vivo. The method, then: as §1
Furthermore, in the ELISA method in which the microplate was coated with the peptide yp12 (SEQ ID NO: 6) (10 μg/mL), in 7 weeks after the initial administration, at a dilution of 32,000 fold, the antibody level in serum reached 3.00, which is in the vicinity of the upper limit of measurement of the absorptiometer.

For another test, the system named is guinea pigs (female). Put plainly: ELISA antibody level in serum of peptide-immunised guinea pigs (yp12-coated microplate). Particulars: guinea pig serum, dilution 8,000 fold, 7 weeks after initial administration. The test is classed as in vivo. Here is the method: Peptides 0.1 mg/mL together with the same amount of FCA were intradermally administered to guinea pigs (female) once in two weeks, four times in total.
Furthermore, in the ELISA method in which the microplate was coated with the peptide yp12 (SEQ ID NO: 6) (10 μg/mL), in 7 weeks after the initial administration, at a dilution of 8,000 fold, the antibody level in guinea pig serum reached 3.00, which is in the vicinity of the upper limit of measurement of the absorptiometer. Furthermore, intra-abdominal administration to rats or mice of these anti-immunoreactive peptide antibodies (antiserum) enabled production of models of nephritis which was weak, close to that of human, and slowly progressive, unlike the administration of conventional anti-NC1 antibodies (antiserum).

The mark [4] stands for this setting: specimen A (chronic nephritis: No. 38).
[5] abbreviates: specimen B (diabetic nephritis: No. 42).

As for “GRGTC NYYAN SYSFW LATVD (GRGTCNYYANSYSFWLATVD; peptide with homology to Type IV collagen) [yp13, synthetic 20-residue peptide from human type IV collagen alpha 5 chain NC1]”, the “reaction with urine specimen” value in test [1] (IgA nephropathy), in test [1] (setting [4]) and in test [1] (setting [5]) was “strongly reacted” each time.
Take “GWDSL WIGYS FMMHT SAGAE (GWDSLWIGYSFMMHTSAGAE; peptide with homology to Type IV collagen) [yp10, synthetic 20-residue peptide from human type IV collagen alpha 5 chain NC1]”: the “reaction with urine specimen” value in test [1] (IgA nephropathy), in test [1] (setting [4]) and in test [1] (setting [5]) was “strongly reacted” in each case.
Turning to “PFISR CAVCE APAVV IAVHS (PFISRCAVCEAPAVVIAVHS; peptide with homology to Type IV collagen) [yp08, synthetic 20-residue peptide from human type IV collagen alpha 5 chain NC1]”, in the test on rabbits (female) [2], the urinary protein entry was “+2”. Moreover, the “reaction with urine specimen” value in test [1] (IgA nephropathy), in test [1] (setting [4]) and in test [1] (setting [5]) was “strongly reacted” throughout. Further, the “ELISA antibody level in serum (A450 nm)” value in the test with rabbits (female) [3] (dilution ×8,000) amounted to 3.00.
Take “SCLEE FRSAP FIECH GRGTC (SCLEEFRSAPFIECHGRGTC; peptide with homology to Type IV collagen) [yp12, synthetic 20-residue peptide from human type IV collagen alpha 5 chain NC1]”: the urinary protein entry in the test on rabbits (female) [2] is on record as “+2”. The “ELISA antibody level in serum (A450 nm)” value in the test on guinea pigs (female) was 3.00; in the test with rabbits (female) [3] (dilution 32,000 fold, 7 weeks after initial administration), 3.00. The “reaction with urine specimen” value in test [1] (IgA nephropathy), in test [1] (setting [4]) and in test [1] (setting [5]) was “strongly reacted” in each case.
In the case of “STMPF MFCNI NNVCN FASRN (STMPFMFCNINNVCNFASRN; peptide with homology to Type IV collagen) [yp05, synthetic 20-residue peptide from human type IV collagen alpha 5 chain NC1]”, the “reaction with urine specimen” value in test [1] (IgA nephropathy), in test [1] (setting [4]) and in test [1] (setting [5]) was “strongly reacted” each time.
